From patent publication US12564596B2, “Agents and methods for modulating pathogen activity” (Griffith University, priority 2018, dated 2026)

Assays:
[1] = system: N. gonorrhoeae in infected PEX cells; assay: Survival assay of N. gonorrhoeae in infected PEX cells; assay type: cell-based, Neisseria gonorrhoeae
Description: N. gonorrhoeae strains used in survival assays included MS11 Schoolnik et al (1984, supra), Segal et al (1985, supra) and 1291 Apicella et al (1974, J. Infect Dis. 130(6):619-25), Dudas and Apicella (1988, Infect Immun. 56(2):499-504), which are commonly used to study gonococcal pathogenesis. Also examined were a panel of low-passage clinical isolates (FIG. 14; i.e., N. gonorrhoeae strains LT38097, UT38885, PID-26, and SK92-679). Strains 1291 and LT38097 are male urethral isolates; strains MS11 and UT38885 were obtained from women with uncomplicated gonococcal cervicitis, strain PID-26 was obtained from a patient with pelvic inflammatory disease; and strain SK92-679 is a blood isolate from a patient with disseminated infection. Antibiotic-resistant N. gonorrhoeae strains tested were obtained from Public Health England and comprised WHO-L, WHO-M, WHO-X (H041), WHO-Y (F89), and WHO-Z (A8806), see FIG. 15. For use, bacteria were harvested from overnight (37° C., 5% CO2), GC-IsoVitaleX agar plate cultures and enumerated spectrophotometrically, as previously described Edwards et al (2000, Infect Immun 68(9):5354-63). Infection studies were performed using a multiplicity of infection of 100 Edwards et al (2000, Infect Immun 68(9):5354-63).
PEX cells were challenged with the noted N. gonorrhoeae strains for 90 min. For single dose survival assays, the infection medium was then removed, cells were rinsed thrice, and fresh medium containing 1% DMSO (vehicle control), carbamazepine ([…], as noted), or ceftriaxone (0.1 μg/mL or 0.5 μg/mL, positive control) was added. Infections were then allowed to proceed for an additional 24 h or 48 h. At the indicated times post-treatment, the infection medium was removed, the PEX cell monolayers were rinsed thrice, lysed, and viable N. gonorrhoeae were enumerated by counting colony forming units after plating serial dilutions of the PEX cell lysates (for example see 12). In some experiments (i.e., two dose survival assays for example see FIG. 13), a second dose of carbamazepine was added at 24 hours-post addition of the first carbamazepine dose. Infections were then allowed to proceed for an additional 24 h before plating the PEX cell lysate, as above. For either assay, the percentage of N. gonorrhoeae that survived carbamazepine or antibiotic treatment was determined as a function of bacteria that survived DMSO (vehicle control) treatment (set to 100%). […] To investigate whether the small percentage of the surviving bacterial cells have developed resistance to the treatment, sequential infection assays were conducted. Bacteria were harvested from the CFU count plates and then used to inoculate a new assay. […] All assays were performed in triplicate on 3 separate occasions with the noted bacterial strains. A Kruskal-Wallis k-sample analysis of variance was used to determine the statistical significance of bacterial survival.
The ability of a single dose of methyldopa was evaluated to inhibit survival of low-passage N. gonorrhoeae isolates in PEX cells challenged with those isolates. To establish infection, PEX cells were challenged with N. gonorrhoeae for 90 min using the noted low-passage isolates. Infections were then allowed to proceed for an additional 24 h or 48 h in the presence or absence of DMSO (1%, vehicle control), methyldopa (10 μM, Md), or ceftriaxone (0.5 μg/mL, positive control, Cfx).

[2] = system: HIV strains NL4-3 and NLAD8 adherence to CHO-CR3 cells; assay: Fluorometric adherence assay, HIV to CHO cells; assay type: cell-based
Procedure: To test the ability of HIV to bind to CHO cells in a CR3 dependent fashion, and to test the ability of carbamazepine to block adherence of HIV to CHO-CR3 or CHO-neo cells, a fluorometric adherence assay was used, essentially as described by Jen et al (2013, supra). In this regard, CHO-neo or CHO-CR3 cells were seeded to a 96-well plate and allowed to grow to confluence. Fluorescently labelled HIV (10 ng of p24 HIV capsid protein equivalent of HIV in 100 μL of F12 culture media) were then used to challenge (2 h) CHO cells simultaneously with, or without, various concentrations of carbamazepine (as noted). Fluorescence (485/528 nm) intensity, corresponding to HIV cell adherence, was recorded using a Synergy HT Multi-mode Microplate Reader (BioTek Instruments, Winooski, VT USA). […] A Kruskal-Wallis k-sample analysis of variance was used to determine the statistical significance of the calculated mean of viral-cell adherence.
Having established the CR3-dependent binding of HIV to CHO cells, the inventors next examined the ability of carbamazepine to block the interaction of HIV strains NL4-3 and NLAD8 with the CR3 I-domain using fluorometric adherence assays. CR3-expressing (CHO-CR3) and non-expressing (CHO-neo) CHO cells, were seeded to microtiter plates, and HIV adherence was quantitated fluorometrically, as described by Jen et al. (2013, supra). […]

[3] = target: T1, N. gonorrhoeae MS11 pilin interaction with human rI-domain (Homo sapiens, UniProt P11215); assay: SPR 1:1 competition assay, MS11 pilin binding to rI-domain
T1 construct: was performed with human rI-domain immobilized on a CM5 sensor chip surface; made in house
T1 sequence (P11215 150-328): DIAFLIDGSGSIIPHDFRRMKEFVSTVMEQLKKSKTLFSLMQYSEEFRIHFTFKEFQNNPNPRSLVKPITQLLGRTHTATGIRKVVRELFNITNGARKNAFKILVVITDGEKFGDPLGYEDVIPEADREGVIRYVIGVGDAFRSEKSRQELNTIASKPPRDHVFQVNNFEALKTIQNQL
Procedure: To determine if drugs with high affinity interactions with the human rI-domain could inhibit the interaction with MS11 pilin or HIV, competition assay between primary T-cell derived WITO HIV and N. gonorrhoeae MS11 pilin and the drugs were performed as described Mubaiwa et al (2017, Sci Rep. 7(1):5693). Competition analysis SPR of N. gonorrhoeae MS11 pilin and human rI-domain interaction was performed with human rI-domain immobilized on a CM5 sensor chip surface (low immobilization—˜3500 RU compared to ˜14000 RU for initial screening and KD calculations). N. gonorrhoeae MS11 purified pilin, drug or drug and pilin were flowed at 100 nM over the I-domain and the response units of the interactions were recorded.

Compound: NC(=O)N1c2ccccc2C=Cc2ccccc21 [carbamazepine, 5H-dibenzo[b,f]azepine-5-carboxamide]
- killing of gonococci ([1]; by 24 hours, concentrations of 10 μM or higher): greater than 99.95%
- gonococcal killing ([1]; low-passage isolates, 24 h, 10 μM single dose): Greater than 99%
- gonococcal killing ([1]; multidrug-resistant strains, 24 h, 10 μM single dose): Greater than 99%
- gonococcal killing ([1]; strain MS11, by 24 h, single 100 nM dose): Greater than 99%
- gonococcal killing ([1]; strain MS11, by 48 h, 2 100 nM doses applied 24 h apart): greater than 99.95%
- gonococcal killing ([1]; strain MS11, concentrations greater than or equal to 10 nM, 24 h or 48 h): Greater than 98%
- gonococcal killing ([1]; strain MS11, sequential infection, following the second infection, 10 μM, 24 h): 100%
- HIV adherence to CHO-CR3 cells compared with CHO-neo cells ([2]; 1 μM, 2 h post-challenge): not significantly different than that recorded for CHO-neo cells
- HIV adherence to CHO-CR3, but not CHO-neo, cells with increasing concentrations ([2]; 2 h): dose-dependent decrease
- inhibition at 0.1 µM ([3]; 1:1 competition, 100 nM): ~99%
- % inhibition ([3]; 1:1 competition, 100 nM, 0.1 µM): 98.97%
- Block MS11 pilin in SPR ([3]; direct competition SPR): Yes
- Drug RU ([3]; drug alone flowed at 100 nM over immobilized rI-domain): 4.358 RU
- Pilin + Drug RU ([3]; drug and pilin flowed at 100 nM, 1:1): 4.675 RU
